We go through 18 compounds from patent US12612358B2, “Resorcinol-based compounds and uses thereof” (priority 2020, dated 2026).

Each structure is given as a SMILES string. Read-outs that look alike come from different tables or passages of the source.

One data set deals with PANC-1. The data set is described as follows: CellTiter-Glo cell proliferation, PANC-1 pancreatic cancer cells. It counts as cell-based, human. As to conditions: Homo sapiens; PANC-1 (by context); read-out: IC50, inhibition of cell viability/proliferation. From the text:
Cell culture and treatment of pancreatic cancer cell lines: Pancreatic cancer cells lines BxPC-3, SW1990, and PANC-1 used in the experiments presented herein can be obtained from ATCC. The cells can be cultured and passaged in complete growth medium (RPMI-1640, Dulbecco's Modified Eagle Medium, or Leibovitz's L-15 medium) that has been supplemented with fetal bovine serum to a final concentration of 10%.
Effects of Compound-5B on proliferation and Id-1 expression in pancreatic cell lines. Compound-5B was next tested for inhibition of cell viability/proliferation in the three pancreatic cancer cell lines and two primary patient-derived cancer cell lines. Compound-5B inhibited cell viability/proliferation of all the cancer cell lines (Table 2). The culturing condition for the pancreatic cell lines was similar to those used in the breast cancer lines, with the exception of the primary patient-derived pancreatic cancer cell lines (PANC9 and PANC13). For determining inhibition of cell proliferation in patient-derived pancreatic cancer cells were cultured in a T75 ultra low attachment flasks with DMEM/F12 media supplemented with B27, penicillin/streptomycin (10,000 u/mL), 50 µg/mL human epidermal growth factor (hEGF), 50 μg/mL human fibroblast growth factor, and 5 μg/mL heparin. Cells were plated in a 384-well plate and incubated for three days to promote the formation of tumorspheres. Cells were then treated with Compound-5B for three days. Cell proliferation of pancreatic cells in the presence of drug was measured using the CellTiter-Glo luminescent Assay and IC50 values were calculated (Table 2). The IC50 and corresponding 95% confidence limits (CL) were calculated using non-linear regression analysis.

The test system of a further data set is MDA-MB231 D3H. The data set is described as follows: CellTiter-Glo viability/proliferation assay, MDA-MB231 breast cancer cells. It is filed as cell-based. As to conditions: Homo sapiens, MDA-MB-231, 48 h, read-out: Inhibition of MDA-MB231 D3H. In general terms: In ATP-based viability assays light output follows the ATP content of the culture.
A further data set deals with SKOv3 (ovarian). The data set is described as follows: Cell proliferation, SKOv3 ovarian cancer cells. As to conditions: Homo sapiens, SK-OV-3, read-out: IC50 category. It is filed as cell-based. From the text: Effects of Compound-5B on cell proliferation in additional cancer cells: To determine whether Compound-5B would have broad based anticancer activity, we study whether Compound-5B would be effective at inhibiting cell proliferation in a variety of cancers overexpressing Id-1. The assay conditions used were identical to those presented for breast and pancreatic cancers. Indeed, Compound-5B was potent at inhibiting cell proliferation in blood cancer (leukemia), glioblastoma, prostate, and ovarian cancer.

In a further data set the test system is PANC-1 tumors. The data set is described as follows: PANC-1 subcutaneous xenograft in athymic nu/nu mice. It is filed as in vivo. As to conditions: PANC-1 tumor mice; Compound-5B 10 mg/kg i.p. daily, gemcitabine 50 mg/kg i.p. three times a week.
The mark [1] stands for this setting: CellTiter-Glo, two-day treatment.

For the compound `C=C(C)[C@@H]1CCC(C)=C[C@H]1c1c(O)cc(CCCCC)cc1O` [CBD, cannabidiol, reference compound], the IC50 with PANC-1 was 1.9 µM.

In the case of `CCCCCCC(C)(C)c1cc(O)c(C(=O)NC2CCCCC2)c(O)c1` [Compound 5A, N-cyclohexyl-2,6-dihydroxy-4-(2-methyloctan-2-yl)benzamide], the IC50 with MDA-MB231 D3H was less than 0.5 µM.

As for `CCCCCCC(C)(C)c1cc(O)c(C(=O)Nc2ccccn2)c(O)c1` [Compound 5C, 2,6-dihydroxy-4-(2-methyloctan-2-yl)-N-(cyridin-2-yl) benzamide], the IC50 with MDA-MB231 D3H (setting [1]) was less than 0.5 µM.

With `CCCCCCC(C)(C)c1cc(O)c(C(=O)Nc2ccncn2)c(O)c1` [Compound 5D, 2,6-dihydroxy-4-(2-methyloctan-2-yl)-N-(pyrimidin-4-yl)benzamide], the IC50 with MDA-MB231 D3H (setting [1]) was less than 0.5 µM.

On to `CCCCCCC(C)(C)c1cc(O)c(C(=O)N(C)c2ccccc2)c(O)c1` [Compound 5E, 2,6-dihydroxy-N-methyl-4-(2-methyloctan-2-yl)-N-phenylbenzamide], for which the IC50 with SKOv3 (ovarian) lay within 0.5 to 1 µM; with MDA-MB231 D3H, 1 to 5 µM.

On to `CCCCCCC(C)(C)c1cc(O)c(C(=O)Nc2ccc(N3CCN(C)CC3)cc2)c(O)c1` [Compound 5F, 2,6-dihydroxy-4-(2-methyloctan-2-yl)-N-(4-(4-methylpiperazin-1-yl)phenyl)benzamide], for which the IC50 in the data set with MDA-MB231 D3H (setting [1]) was greater than 15 µM.

Consider `CCCCCCC(C)(C)c1cc(O)c(C(=O)Nc2cccc(N3CCN(C)CC3)c2)c(O)c1` [Compound 5G, 2,6-dihydroxy-4-(2-methyloctan-2-yl)-N-(3-(4-methylpiperazin-1-yl)phenyl)benzamide], for which the IC50 in the data set on MDA-MB231 D3H (setting [1]) lay in the range of 1 to 5 µM.

In the case of `CCCCCCC(C)(C)c1cc(O)c(C(=O)Nc2ccccc2N2CCN(C)CC2)c(O)c1` [Compound 5H, 2,6-dihydroxy-4-(2-methyloctan-2-yl)-N-(2-(4-methylpiperazin-1-yl)phenyl)benzamide], the IC50 in the data set on MDA-MB231 D3H (setting [1]) fell in the range of 0.5 to 1 µM.

For `CCCCCCC(C)(C)c1cc(O)c(C(=O)Nc2ccc(N3CCOCC3)cc2)c(O)c1` [Compound 5I, 2,6-dihydroxy-4-(2-methyloctan-2-yl)-N-(4-morpholinophenyl)benzamide], the IC50 in the data set on MDA-MB231 D3H (setting [1]) is less than 0.5 µM.

As for `CCCCCCC(C)(C)c1cc(O)c(C(=O)Nc2cccc(N3CCOCC3)c2)c(O)c1` [Compound 5J, 2,6-dihydroxy-4-(2-methyloctan-2-yl)-N-(3-morpholinophenyl)benzamide], in the data set on MDA-MB231 D3H (setting [1]), the IC50 is less than 0.5 µM.

As for `CCCCCCC(C)(C)c1cc(O)c(C(=O)Nc2ccccc2N2CCOCC2)c(O)c1` [Compound 5K, 2,6-dihydroxy-4-(2-methyloctan-2-yl)-N-(2-morpholinophenyl)benzamide], the IC50 with MDA-MB231 D3H (setting [1]) was less than 0.5 µM.

For the compound `CCCCCc1cc(O)c(C(=O)Nc2ccccc2)c(O)c1` [Compound 11, 2,6-dihydroxy-4-pentyl-N-phenylbenzamide], in the data set with MDA-MB231 D3H (setting [1]), the IC50 was less than 0.5 µM.

With `CC(C)(c1ccccc1)c1cc(O)c(C(=O)NC2CCCCC2)c(O)c1` [Compound 17A, N-cyclohexyl-2,6-dihydroxy-4-(2-phenylpropan-2-yl)benzamide], the IC50 in the data set with MDA-MB231 D3H was 0.5 to 1 µM.

On to `CC(C)(c1ccccc1)c1cc(O)c(C(=O)Nc2ccccc2)c(O)c1` [Compound 17B, 2,6-dihydroxy-N-phenyl-4-(2-phenylpropan-2-yl)benzamide], for which the IC50 in the data set on MDA-MB231 D3H (setting [1]) is less than 0.5 µM.

Turning to `CC(C)(c1cc(O)c(C(=O)Nc2ccccc2)c(O)c1)C1CCCCC1` [Compound 17C, 4-(2-cyclohexylpropan-2-yl)-2,6-dihydroxy-N-phenylbenzamide], the IC50 in the data set with MDA-MB231 D3H was less than 0.5 µM.

Turning to `CC(C)(c1cc(O)c(C(=O)Nc2ccccn2)c(O)c1)C1CCCCC1` [Compound 17D, 4-(2-cyclohexylpropan-2-yl)-2,6-dihydroxy-N-(pyridin-2-yl)benzamide], the IC50 with MDA-MB231 D3H was less than 0.5 µM.

Regarding `CC(C)(CCCCN1CCOCC1)c1cc(O)c(C(=O)Nc2ccccc2)c(O)c1` [Compound 26A, 2,6-dihydroxy-4-(2-methyl-6-morpholinohexan-2-yl)-N-phenylbenzamide], the IC50 in the data set on MDA-MB231 D3H (setting [1]) was 1 to 5 µM.

For the compound `Nc1ccn([C@@H]2O[C@H](CO)[C@@H](O)C2(F)F)c(=O)n1` [gemcitabine, reference compound], the “weight loss (metric of drug toxicity)” value in the data set on PANC-1 tumors is “significant weight loss”.
